Experiments:
HeLa cells = assay: MTT cytotoxicity of Npx containing hydrogelators; format: cell-based
Experimental: The HeLa cells in good condition were seeded into 96-well plate (2×10^5 cells/well) in 100 μL of MEM medium with 10% FBS. With 12 hours of incubation at 37° C. and 5% CO2, the HeLa cells were attached to bottom of 96-well plate. Then the medium was replaced by another 100 μL of growth medium that contained serial diluents of our compounds and the cells were incubated at 37° C. and 5% CO2 for additional 72 hours. The compounds were stocked at 10 μM in DMSO, followed by further dilutions with MEM medium. All of these serial diluents were adjusted to contain 0.5% of DMSO.

[1] = in vitro release of hydrogelators from hydrogels; format: physicochemical; settings: 0.8 wt % hydrogel, PBS pH 7.4, 37° C., after 24 hours
Experimental: After studying their drug efficacies, the sustained release of Npx-containing hydrogelators from 0.8 wt % of hydrogels was studied. We incubated 100 μL of hydrogels at 37° C. for 24 hours with 100 μL of PBS buffer solution (pH 7.4), which is refreshed and monitored at 1 h, 2 h, 4 h, 8 h, 12 h, and 24 h. […] After 24 hours, hydrogel 1 slowly and steadily released 6.5% of the hydrogelator. […] Hydrogels 5 and 6 release 35.8% and 31.7% of hydrogelators after 24 h.
To illustrate the in vitro release profile of hydrogelators, we prepared 100 μL of the hydrogels formed by 1 (0.8 wt %, pH 4.0), 2 (0.8 wt %, pH 7.6), 3 (0.8 wt %, pH 7.6), 4 (0.8 wt %, pH 7.6), 5 (0.8 wt %, pH 7.0), and 6 (0.8 wt %, pH 7.0). With the addition of PBS buffer (100 μL, pH 7.4) onto the surface of hydrogels, the gels were incubated at 37° C. for 24 hours. The release solutions (100 μL) were taken and refreshed at […], 2 h, 4 h, 8 h, 12 h, and 24 h, which were detected by analytical HPLC at 276 nm for the quantities of released Npx containing hydrogelators 1, 2, 3, 4, 5, and 6.

[2] = rheological measurement of Npx containing hydrogels; format: physicochemical; settings: hydrogel 0.8 wt %
Experimental: Rheological tests were conducted on TA ARES G2 rheometer with TA Orchestrator Software. 25 mm cone-plate was used during the experiment. 0.2 mL of hydrogel sample was placed on the cone-plate.
The measurement performs at the frequency of 6.28 rad/s (0.1 to 10% strain, frequency=10 rads^−1, 10 points per decade). Sweep mode is “log” and temperature was carried out at 25° C. The critical strain (γc) value was determined from the storage-strain profiles of the hydrogel sample. The strain applied to the hydrogel sample increased from 0.1 to 100% (10 rad/s and 25° C.). Over a certain strain, a drop in the elastic modulus was observed, and the strain amplitude at which storage moduli just begins to decrease by 5% from its maximum value was determined and taken as a measure of the critical strain of the hydrogels, which correspond to the breakdown of the cross-linked network in the hydrogel sample.
The frequency ranges from 200 rad/s to 0.1 rad/s, depending on the viscoelastic properties of each sample. A suitable strain was used to ensure the linearity of dynamic viscoelasticity.

In the case of `COc1ccc2cc([C@H](C)C(=O)N[C@H](Cc3ccccc3)C(=O)N[C@H](Cc3ccccc3)C(=O)N[C@H](Cc3ccc(O)cc3)C(=O)O)ccc2c1` [compound 2, Npx-ffy], the “cell proliferation based on the numbers of HeLa cells” value (HeLa cells) is reported as “no promotion of the cell proliferation”, the “hydrogelator released from hydrogel” value [1] is reported as 8.0% and the critical strain [2] is reported as 1.6%. The “storage modulus G′” value ([2]; 6.28 rad/s) was 6.2×10^2 Pa.

— patent US20150306232A1, “HYDROGELATORS COMPRISING D-AMINO ACIDS” (BRANDEIS UNIVERSITY, priority 2012, published 2015)
